Assays:
LEFCH = test: In-water applied weed control, transplanted paddy rice, greenhouse (Example II); assay type: in vivo, Leptochloa chinensis (L.) Nees
Method: (§1) Evaluation of in-Water Applied Herbicidal Mixtures for Weed Control in Transplanted Paddy Rice
(§2) Weed seeds or nutlets of the desired test plant species were planted in puddled soil (mud) prepared by mixing a shredded, non-sterilized mineral soil (50.5 percent silt, 25.5 percent clay, and 24 percent sand, with a pH of about 7.6 and an organic matter content of about 2.9 percent) and water at a 1:1 volumetric ratio. The prepared mud was dispensed in 365 mL aliquots into 16-ounce (oz.) non-perforated plastic pots with a surface area of 86.59 square centimeters (cm^2) leaving a headspace of 3 centimeters (cm) in each pot. Mud was allowed to dry overnight prior to planting or transplanting. Rice seeds were planted in Sun Gro MetroMix® 306 planting mixture, which typically has a pH of 6.0 to 6.8 and an organic matter content of about 30 percent, in plastic plug trays. Seedlings at the second or third leaf stage of growth were transplanted into 840 mL of mud contained in 32-oz. non-perforated plastic pots with a surface area of 86.59 cm^2 4 days prior to herbicide application. The paddy was created by filling the headspace of the pots with 2.5 to 3 cm of water. When required to ensure good germination and healthy plants, a fungicide treatment and/or other chemical or physical treatment was applied. The plants were grown for 4-22 days in a greenhouse with an approximate 14 h photoperiod which was maintained at about 29′C during the day and 26° C. during the night. Nutrients were added as Osmocote® (19:6:12, N:P:K+ minor nutrients) at 2 g per 16-oz. pot and 4 g per 32-oz. pot. Water was added on a regular basis to maintain the paddy flood, and supplemental lighting was provided with overhead metal halide 1000-Watt lamps as necessary. The plants were employed for testing when they reached the first through fourth true leaf stage.
(§3) Treatments consisted of the acid or esters of 4-amino-3-chloro-5-fluoro-6-(4-chloro-2-fluoro-3-methoxy-phenyl)pyridine-2-carboxylic acid (compound A) each formulated as an SC (suspension concentrate) and various herbicidal components alone and in combination. Forms of compound A were applied on an acid equivalent basis.
(§4) Other herbicidal components were applied on an active ingredient basis and included 4-hydroxyphenyl pyruvate dioxygenase (HPPD)-inhibiting herbicides mesotrione formulated as Callisto®, sulcotrione formulated as Mikado®, pyrazolynate formulated as Sunbird® 10% GR, and benzobicyclon formulated as Benzobicyclon 3.5% or technical material.
(§5) Treatment requirements for each compound or herbicidal component were calculated based upon the rates being tested, the concentration of active ingredient or acid equivalent in the formulation, an application volume of 2 mL per component per pot, and an application area of 86.59 cm^2 per pot.
(§6) For formulated compounds, a measured amount was placed in an individual 100 or 200 mL glass vial and was dissolved in a volume of 1.25% (v/v) Agri-Dex® crop oil concentrate to obtain application solutions.
(§7) For technical grade compounds, a weighed amount was placed in an individual 100 to 200 mL glass vial and was dissolved in a volume of acetone to obtain concentrated stock solutions. […] The concentrated stock solutions obtained were diluted with an equivalent volume of an aqueous mixture containing 2.5% (v/v) crop oil concentrate so that the final application solutions contained 1.25% (v/v) crop oil concentrate.
(§8) Applications were made by injecting with a pipetter appropriate amounts of the application solutions, individually and sequentially, into the aqueous layer of the paddy. Control plants were treated in the same manner with the solvent blank. Applications were made so that all treated plant material received the same concentrations of acetone and crop oil concentrate.
(§9) The treated plants and control plants were placed in a greenhouse as described above and water was added as needed to maintain a paddy flood. […]

FIMMI = test: as above; assay type: in vivo, Fimbristylis miliacea (L.) Vahl
Method: as §1, §2, §3, §4, §5, §6, §7, §8, §9

| SMILES | Visual Weed Control (%) - 21 DAA LEFCH Obs (LEFCH; 8.75 gae/ha) [%] | Visual Weed Control (%) - 21 DAA LEFCH Obs (LEFCH; 17.5 gae/ha) [%] | Visual Weed Control (%) - 21 DAA FIMMI Obs (FIMMI; 17.5 gae/ha) [%] | Visual Weed Control (%) - 21 DAA FIMMI Obs (FIMMI; 35 gae/ha) [%] | Visual Weed Control (%) - 21 DAA LEFCH Obs (LEFCH; 4.38 gae/ha) [%] | Visual Weed Control (%) - 21 DAA FIMMI Obs (FIMMI; 8 gae/ha) [%] | Visual Weed Control (%) - 21 DAA FIMMI Obs (FIMMI; 16 gae/ha) [%] |
| --- | --- | --- | --- | --- | --- | --- | --- |
| COc1c(Cl)ccc(-c2nc(C(=O)O)c(Cl)c(N)c2F)c1F [Compound A Acid, 4-amino-3-chloro-6-(4-chloro-2-fluoro-3-methoxyphenyl)-5-fluoropyridine-2-carboxylic acid] | 0 | 0 | 85 | 85 | – | – | – |
| COc1c(Cl)ccc(-c2nc(C(=O)OCc3ccccc3)c(Cl)c(N)c2F)c1F [Compound A Benzyl Ester, benzyl ester of 4-amino-3-chloro-5-fluoro-6-(4-chloro-2-fluoro-3-methoxy-phenyl)pyridine-2-carboxylic acid] | 15 | – | – | – | 15 | 15 | 65 |

From patent publication US8841233B2, “Herbicidal compositions comprising 4-amino-3-chloro-5-fluoro-6-(4-chloro-2-fluoro-3-methoxyphenyl) pyridine-2-carboxylic acid or a derivative thereof and 4-hydroxyphenyl-pyruvate dioxygenase (HPPD) inhibitors” (Dow Agrosciences LLC, priority 2012, dated 2014)
